19 compounds from patent publication US10428024B2, “Piperidinyl derivatives” (MERCK PATENT GMBH, priority 2016, dated 2019) can be followed below.

In experiment [1] the target is PDHK2 (Homo sapiens (Human), UniProt Q15119). Briefly: Biochemical activity testing of PDHK2: PDC inactivation assay. The following applies: human rec PDHK2, 5 μM ATP, read-out: IC50 PDHK2 (enzyme assay). The source says: Biochemical Activity Testing of PDHK2: PDC Inactivation Assay
The biochemical activity assay for PDHK2 is based on the inactivation of PDC through phosphorylation by PDHK2. The assay is run in two steps: the enzymatic PDHK2 reaction in which isolated PDC is phosphorylated by PDHK2 with ATP as co-substrate and the PDC activity assay in which pyruvate and NAD are converted to acetyl-CoA and NADH. The PDC activity correlates to the increase in NADH and thereby is detectable directly via the increasing fluorescence signal (Exc 340 nm, Em 450 nm). Inhibition of PDHK2 results in a lower phosphorylation status and thereby a less decrease in activity of PDC and a stronger increase in NADH fluorescence signal.
The PDC inactivation assay is performed in Greiner 384-well microtiter plates and is used for high throughput screen. 4 μl of PDHK2 (human, rec, Carna Bioscience, 10 ng/μl-137 nM final concentration) and PDC (isolated from porcine heart, Sigma-Aldrich, 20 mU/ml final concentration) are incubated in the absence or presence of the test compound (10 dilution concentrations) for 30 min at room temperature in kinase buffer (15 mM potassium phosphate buffer, pH 7.0, 60 mM KCl, 1.5 mM DTT, 2.5 mM MgCl2, 0.0125% (w/v) BSA, 0.125% Pluronic F-68). The kinase reaction is started by the addition of 4 μl ATP substrate solution (fc 5 μM in kinase buffer). After 30 min incubation at 37° C. 40 μl of PDC reaction solution (100 mM Tris/HCl, pH 7.8, 0.5 mM EDTA, 1 mM MgCl2, 50 mM NaF, 0.25 mM Coenzyme A, 5 mM pyruvate, 1 mM NAD, 5 mM DTT, 1 mM thiamine pyrophosphate) is added. The first fluorescence measurement is performed on a Perkin Elmer Envision (Exc 340 nm, Em 450 nm). The reaction is incubated for 45 min at room temperature. Afterwards a second fluorescence measurement is performed and the PDC activity is calculated by the difference between both measurements. As full value for the PDHK2 assay the inhibitor-free PDHK2 reaction is used. The pharmacological zero value used is DCA (Sigma-Aldrich) in a final concentration of 3 mM. The inhibitory values (IC50) were determined using either the program Symyx Assay Explorer® or Condosseo® from GeneData.

The target in experiment [2] is human PDHK2 (12-407) (Homo sapiens (Human), UniProt Q15119). Briefly: Isothermal titration calorimetry (ITC). Particulars: 30° C., pH 7.5; read-out: Binding (ITC) KD. As to the method:
Isothermal Titration Calorimetry
ITC measurements were performed with a VP-ITC micro calorimeter (Microcal, LLC/GE Healthcare Bio-Sciences AB, Uppsala, Sweden). In general titrations were performed by titrating the protein (50 μM) to the test compound (5 μM) in 12 μl injections. All binding experiments were carried out at 30° C. In general the test compounds were diluted form DMSO stock solutions into the measurement buffer with a maximum final concentration of 1% DMSO. The measurement buffer was 20 mM HEPES, 135 mM KCl, 1 mM TCEP, 2 mM MgCl2, 15 mM NaH2PO4, pH 7.5. The human PDHK2 (12-407) was produced in E. coli as his-tagged protein and purified by affinity chromatography. The tag was removed by side specific proteolysis. Before titration the protein buffer was changed to the measurement buffer containing the same DMSO concentration as the test compound dilution. ITC data analysis was performed using Origin 7 calorimetry software from the same supplier. For most measurements a binding model of one binding site was assumed. According to the applied mathematical model it is possible to calculate the binding constant (KA), the observed binding enthalpy (ΔH^obs) as well as the stoichiometry (N) of the formed complex. Preceding analysis the raw data was corrected for the heats of dilution by extrapolating from the saturation value from the end of titration. In order to allow for direct comparison between the respective experimental series and protein preparations the protein concentration was corrected by referencing titrations to a well behaved standard inhibitor. The apparent stoichiometry values defined the fraction of binding competent protein and compensated for relative errors in protein concentration measurements. This corrected protein concentration was used to set up ITC experiment series with test compounds. Any deviations from ideal 1:1 stoichiometry observed here were attributed to errors in compound concentration. This nominal compound concentration was corrected as well to achieve 1:1 stoichiometry in the fit.

For the compound `CN(C(=O)C1CCN(C(=O)[C@@](C)(O)C(F)(F)F)CC1)c1ccc(C#N)cc1` [Compound A4, 1-((R)-3,3,3-Trifluoro-2-hydroxy-2-methyl-propionyl)-piperidine-4-carboxylic acid (4-cyano-phenyl)-methyl-amide], in experiment [1], the half-inhibitory concentration (IC50) was 1.5 µM. The Kd in experiment [2] worked out at 0.21 µM.
For the compound `Cc1ccc(N(C)C(=O)[C@@H]2CCN(C(=O)[C@@](C)(O)C(F)(F)F)C[C@@H]2C)cc1` [Compound A8, (3R,4R)—N,3-Dimethyl-N-(4-methylphenyl)-1-[(2R)-3,3,3-trifluoro-2-hydroxy-2-methylpropanoyl]piperidine-4-carboxamide], the IC50 in experiment [1] is 5.1 µM.
The same measure, in the same setting: in the case of `C[C@H]1CN(C(=O)[C@@](C)(O)C(F)(F)F)CC[C@H]1C(=O)N(C)c1ccc(Cl)cc1` [Compound A11, (3R,4R)—N-(4-chlorophenyl)-N,3-dimethyl-1-[(2R)-3,3,3-trifluoro-2-hydroxy-2-methylpropanoyl]piperidine-4-carboxamide] it was 3.8 µM.
Consider `Cc1ccc(N(C)C(=O)[C@@H]2CCN(C(=O)[C@@](C)(O)C(F)(F)F)C[C@@H]2C)c(F)c1` [Compound A14, (3R,4R)—N-(2-fluoro-4-methylphenyl)-N,3-dimethyl-1-[(2R)-3,3,3-trifluoro-2-hydroxy-2-methylpropanoyl]piperidine-4-carboxamide], for which, in experiment [1], the IC50 was 0.77 µM. In experiment [2], the Kd is 5 µM.
For `CC1CN(C(=O)[C@@](C)(O)C(F)(F)F)CCC1C(=O)N(C)c1ccc(C(F)(F)F)cc1Cl` (stereo partly drawn) [Compound A15, N-[2-chloro-4-(trifluoromethyl)phenyl]-N,3-dimethyl-1-[(2R)-3,3,3-trifluoro-2-hydroxy-2-methylpropanoyl]piperidine-4-carboxamide], the IC50 in experiment [1] is 1.7 µM.
The same measure, in the same setting: the figure for `C[C@H]1CN(C(=O)[C@@](C)(O)C(F)(F)F)CC[C@H]1N(C)C(=O)c1ccc(Cl)cc1` [Compound A22, 4-Chloro-N-methyl-N-[(3S,4R)-3-methyl-1-[(2R)-3,3,3-trifluoro-2-hydroxy-2-methylpropanoyl]piperidin-4-yl]benzamide] is 5.9 µM.
`Cc1ccc(C(=O)N(C)[C@@H]2CCN(C(=O)[C@@](C)(O)C(F)(F)F)C[C@@H]2C)cc1` [Compound A25, N,4-Dimethyl-N-[(3S,4R)-3-methyl-1-[(2R)-3,3,3-trifluoro-2-hydroxy-2-methylpropanoyl]piperidin-4-yl]benzamide]: in experiment [1], the IC50 was determined as 2.7 µM.
Turning to `C[C@H]1CN(C(=O)[C@@](C)(O)C(F)(F)F)CC[C@H]1N(C)C(=O)c1ccc(F)cc1` [Compound A30, 4-Fluoro-N-methyl-N-[(3S,4R)-3-methyl-1-[(2R)-3,3,3-trifluoro-2-hydroxy-2-methylpropanoyl]piperidin-4-yl]benzamide], the half-inhibitory concentration (IC50) in experiment [1] amounted to 7.9 µM.
Still for that read-out and setting: in the case of `C[C@H]1CN(C(=O)[C@@](C)(O)C(F)(F)F)CC[C@H]1N(C)C(=O)c1ccccc1` [Compound A33, N-Methyl-N-[(3S,4R)-3-methyl-1-[(2R)-3,3,3-trifluoro-2-hydroxy-2-methylpropanoyl]piperidin-4-yl]benzamide] it was 3.4 µM; in that of `COc1ccc(C(=O)N(C)[C@@H]2CCN(C(=O)[C@@](C)(O)C(F)(F)F)C[C@@H]2C)cc1` [Compound A36, 4-Methoxy-N-methyl-N-[(3S,4R)-3-methyl-1-[(2R)-3,3,3-trifluoro-2-hydroxy-2-methylpropanoyl]piperidin-4-yl]benzamide], 1.3 µM; in that of `C[C@H]1CN(C(=O)[C@@](C)(O)C(F)(F)F)CC[C@H]1N(C)C(=O)c1ccc(F)cc1F` [Compound A39, 2,4-Difluoro-N-methyl-N-[(3S,4R)-3-methyl-1-[(2R)-3,3,3-trifluoro-2-hydroxy-2-methylpropanoyl]piperidin-4-yl]benzamide], 4.9 µM.
For the compound `C[C@H]1CN(C(=O)[C@@](C)(O)C(F)(F)F)CC[C@H]1N(C)C(=O)c1ncc(F)cc1F` [Compound A42, 3,5-Difluoro-N-methyl-N-[(3S,4R)-3-methyl-1-[(2R)-3,3,3-trifluoro-2-hydroxy-2-methylpropanoyl]piperidin-4-yl]pyridine-2-carboxamide], the IC50 in experiment [1] was found to be 2.4 µM.
With `C[C@H]1CN(C(=O)[C@@](C)(O)C(F)(F)F)CC[C@H]1N(C)C(=O)c1ccc(C#N)cc1` [Compound A45, 4-Cyano-N-methyl-N-[(3S,4R)-3-methyl-1-[(2R)-3,3,3-trifluoro-2-hydroxy-2-methylpropanoyl]piperidin-4-yl]benzamide], the half-maximal inhibitory concentration (IC50) in experiment [1] was found to be 27 µM.
On the same count and under the same terms, in the case of `C[C@H]1CN(C(=O)[C@@](C)(O)C(F)(F)F)CC[C@H]1N(C)C(=O)c1ccc(C(F)(F)F)cc1F` [Compound A48, 2-Fluoro-N-methyl-N-[(3S,4R)-3-methyl-1-[(2R)-3,3,3-trifluoro-2-hydroxy-2-methylpropanoyl]piperidin-4-yl]-4-(trifluoromethyl)benzamide] it was 2.4 µM; in that of `C[C@H]1CN(C(=O)[C@@](C)(O)C(F)(F)F)CC[C@H]1N(C)C(=O)c1ccc(F)cc1Cl` [Compound A51, 2-Chloro-4-fluoro-N-methyl-N-[(3S,4R)-3-methyl-1-[(2R)-3,3,3-trifluoro-2-hydroxy-2-methylpropanoyl]piperidin-4-yl]benzamide], 3.6 µM.
In the case of `C[C@H]1CN(C(=O)[C@@](C)(O)C(F)(F)F)CC[C@H]1N(C)C(=O)c1ccc(F)cn1` [Compound A54, 5-Fluoro-N-methyl-N-[(3S,4R)-3-methyl-1-[(2R)-3,3,3-trifluoro-2-hydroxy-2-methylpropanoyl]piperidin-4-yl]pyridine-2-carboxamide], the 50% inhibitory concentration (IC50) in experiment [1] was determined as 13 µM.
Turning to `C[C@H]1CN(C(=O)[C@@](C)(O)C(F)(F)F)CC[C@H]1N(C)C(=O)c1cnn(C)c1` [Compound A57, N,1-Dimethyl-N-[(3S,4R)-3-methyl-1-[(2R)-3,3,3-trifluoro-2-hydroxy-2-methylpropanoyl]piperidin-4-yl]-1H-pyrazole-4-carboxamide], the IC50 in experiment [1] is 19 µM.
Take `C[C@H]1CN(C(=O)[C@@](C)(O)C(F)(F)F)CC[C@H]1N(C)C(=O)c1ccc(Cl)cc1F` [Compound A60, 4-Chloro-2-fluoro-N-methyl-N-[(3S,4R)-3-methyl-1-[(2R)-3,3,3-trifluoro-2-hydroxy-2-methylpropanoyl]piperidin-4-yl]benzamide]: in experiment [1], the IC50 turned out to be 3.9 µM.
As for `C[C@H]1CN(C(=O)[C@@](C)(O)C(F)(F)F)CC[C@H]1N(C)C(=O)c1ccc(C(F)(F)F)cc1` [Compound A63, N-Methyl-N-[(3S,4R)-3-methyl-1-[(2R)-3,3,3-trifluoro-2-hydroxy-2-methylpropanoyl]piperidin-4-yl]-4-(trifluoromethyl)benzamide], the IC50 in experiment [1] was 2.9 µM.

The IC50 is the midpoint of a concentration-inhibition curve. The Kd is a measure of binding affinity in units of concentration.
